Results from patent publication US7192931B2, “Treatment of demyelinating diseases” (Neuren Pharmaceuticals Ltd., priority 2000, dated 2007).

Tests used:
[1] = test system: C57Bl/6 mice with MOG35-55 peptide-induced EAE; test: Expanded disability status scale for EAE treated mice; format: in vivo, mouse; conditions: for Maximal disability score: Alertness / Maximal disability score: Bladder function / Maximal disability score: Eye movements / Maximal disability score: Motor (grip)* / Maximal disability score: Other signs (shine hairs and loose skin) / Maximal disability score: Sensory* Light touch / Maximal disability score: Sensory* Pain / Maximal disability score: Spontaneous mobility / Maximal disability score: Tone* / Maximal disability score: Tremor / Maximal disability score: Vision (including pupillary reflex) / Total expanded disability scale: mean values
Experimental: (§1) C57Bl/6 mice (8–10 week old) were injected subcutaneously in one flank with 300 μg of MOG35-55 peptide ([…]: SEQ ID NO:1) synthesized by Mimotapes Pty Ltd, Clayton, Australia and emulsified in CFA containing 500 μg of Mycobacterium tuberculosis H37Ra (DIFCO Laboratories, Detrit, USA). They also received 500 ng of pertussis toxin (List Biological Laboratories, CA, USA) in 200 μl PBS intravenously via the tail vein, followed 48 hours later by a second dose. A second injection of MOG peptide was given in the absence of pertussis toxin one week later in the opposite flank, as described previously (Kanwar et al., 2000b).
(§2) Two treatment protocols were employed, involving the treatment of early disease, versus advanced disease. For early disease, reagents were administered at day 35 (following MOG injection). Antibody was administered thrice on alternate days, whereas neuroprotectors were given daily for 6 days, where 50% of reagent was given ip and 50% iv. In the treatment of advanced disease, therapy as above was initiated at day 60, with either three or eight anti-MAdCAM-1 mAb injections, and neuroprotectors given daily for either 7 or 18 days.
The mice were monitored daily and scored according to the following scale: 0, no clinical signs of EAE; 1, limp tail; 2, partial hind limb paralysis; 3, complete hind limb paralysis; 4, complete hind limb and partial fore limb paralysis; 5, paralysis extending to diaphragm; 6, hind and fore limb paralysis; 7, death due to EAE. Paralysis extending to the diaphragm was denoted as difficulty in remaining upright. […] The daily mean clinical score for each group is the mean disease score of at least five mice. The body weight of animals was measured regularly throughout the experiments. The expanded disability status scale for EAE treated mice was scored using an earlier published scoring system (Villoslada et al. 2000).

[2] = test system: C57Bl/6 mice with MOG35-55 peptide-induced EAE; test: Neuropathology scoring of spinal cord sections (pathology status scale); format: in vivo, mouse; conditions: for Pathology status scale: Oligodendrocytes** / Pathology status scale: Remyelination**: reverse scores; for Pathology status scale: Axonal damage / Pathology status scale: Demyelination / Pathology status scale: Inflammation: scored 0 to 5
Experimental: as §1, §2
Mice were perfused through the left cardiac ventricle with ice-cold PBS or glutaraldehyde, and the CNS including brain and spinal cord were prepared for frozen or epoxy sections, respectively. Thin slices were taken at all levels of the CNS including spinal cord (cervical, midthoracic, T11, T12/13, upper lumbar, L6, L7 and sacral) and sacral roots. One-μm thick epoxy sections taken from different levels of the spinal cord were stained with toluidine blue, and examined by light microscopy by an investigator blinded to the sample identity. Multiple sections from the spinal cord were scored from 0 to 5 for inflammation, demyelination, remyelination, and axonal necrosis or damage, using a previously published scoring system (Moore et al., 2000).

NS(=O)(=O)c1cccc2c1c([N+](=O)[O-])cc1nc(O)c(O)nc12 [NBQX, 2,3-dihydroxy-6-nitro-7-sulfamoylbenzo(f)quinoxaline]
total scores (disability scale) ([1]; at day 70 as printed, 35 for rat IgG treated control mice): 30 | Maximal disability score: Alertness ([1]; day 55 after immunization): 2 | Maximal disability score: Bladder function ([1]; day 55 after immunization): 0 | Maximal disability score: Eye movements ([1]; day 55 after immunization): 1 | Maximal disability score: Motor (grip)* ([1]; day 55 after immunization): 12 | Maximal disability score: Other signs (shine hairs and loose skin) ([1]; day 55 after immunization): 3 | Maximal disability score: Sensory* Light touch ([1]; day 55 after immunization): 8 | Maximal disability score: Sensory* Pain ([1]; day 55 after immunization): 8 | Maximal disability score: Spontaneous mobility ([1]; day 55 after immunization): 3 | Maximal disability score: Tone* ([1]; day 55 after immunization): 12 | Maximal disability score: Tremor ([1]; day 55 after immunization): 2 | Maximal disability score: Vision (including pupillary reflex) ([1]; day 55 after immunization): 1 | Total expanded disability scale ([1]; day 55 after immunization): 53 | Maximal disability score: Alertness ([1]; day 60 after immunization): 2 | Maximal disability score: Bladder function ([1]; day 60 after immunization): 1 | Maximal disability score: Eye movements ([1]; day 60 after immunization): 1 | Maximal disability score: Motor (grip)* ([1]; day 60 after immunization): 12 | Maximal disability score: Other signs (shine hairs and loose skin) ([1]; day 60 after immunization): 2 | Maximal disability score: Sensory* Light touch ([1]; day 60 after immunization): 8 | Maximal disability score: Sensory* Pain ([1]; day 60 after immunization): 8 | Maximal disability score: Spontaneous mobility ([1]; day 60 after immunization): 3 | Maximal disability score: Tone* ([1]; day 60 after immunization): 12 | Maximal disability score: Tremor ([1]; day 60 after immunization): 2 | Maximal disability score: Vision (including pupillary reflex) ([1]; day 60 after immunization): 1 | Total expanded disability scale ([1]; day 60 after immunization): 53 | Maximal disability score: Alertness ([1]; day 65 after immunization): 1 | Maximal disability score: Bladder function ([1]; day 65 after immunization): 0 | Maximal disability score: Eye movements ([1]; day 65 after immunization): 0 | Maximal disability score: Motor (grip)* ([1]; day 65 after immunization): 4 | Maximal disability score: Other signs (shine hairs and loose skin) ([1]; day 65 after immunization): 0 | Maximal disability score: Sensory* Light touch ([1]; day 65 after immunization): 0 | Maximal disability score: Sensory* Pain ([1]; day 65 after immunization): 0 | Maximal disability score: Spontaneous mobility ([1]; day 65 after immunization): 2 | Maximal disability score: Tone* ([1]; day 65 after immunization): 8 | Maximal disability score: Tremor ([1]; day 65 after immunization): 0 | Maximal disability score: Vision (including pupillary reflex) ([1]; day 65 after immunization): 0 | Total expanded disability scale ([1]; day 65 after immunization): 15 | Maximal disability score: Alertness ([1]; day 70 after immunization): 1 | Maximal disability score: Bladder function ([1]; day 70 after immunization): 0 | Maximal disability score: Eye movements ([1]; day 70 after immunization): 1 | Maximal disability score: Motor (grip)* ([1]; day 70 after immunization): 4 | Maximal disability score: Other signs (shine hairs and loose skin) ([1]; day 70 after immunization): 0 | Maximal disability score: Sensory* Light touch ([1]; day 70 after immunization): 0 | Maximal disability score: Sensory* Pain ([1]; day 70 after immunization): 0 | Maximal disability score: Spontaneous mobility ([1]; day 70 after immunization): 3 | Maximal disability score: Tone* ([1]; day 70 after immunization): 4 | Maximal disability score: Tremor ([1]; day 70 after immunization): 0 | Maximal disability score: Vision (including pupillary reflex) ([1]; day 70 after immunization): 0 | Total expanded disability scale ([1]; day 70 after immunization): 13 | Maximal disability score: Alertness ([1]; day 75 after immunization): 1 | Maximal disability score: Bladder function ([1]; day 75 after immunization): 1 | Maximal disability score: Eye movements ([1]; day 75 after immunization): 0 | Maximal disability score: Motor (grip)* ([1]; day 75 after immunization): 8 | Maximal disability score: Other signs (shine hairs and loose skin) ([1]; day 75 after immunization): 0 | Maximal disability score: Sensory* Light touch ([1]; day 75 after immunization): 4 | Maximal disability score: Sensory* Pain ([1]; day 75 after immunization): 8 | Maximal disability score: Spontaneous mobility ([1]; day 75 after immunization): 3 | Maximal disability score: Tone* ([1]; day 75 after immunization): 4 | Maximal disability score: Tremor ([1]; day 75 after immunization): 0 | Maximal disability score: Vision (including pupillary reflex) ([1]; day 75 after immunization): 1 | Total expanded disability scale ([1]; day 75 after immunization): 30 | Maximal disability score: Alertness ([1]; day 119 after immunization): 1 | Maximal disability score: Bladder function ([1]; day 119 after immunization): 0 | Maximal disability score: Eye movements ([1]; day 119 after immunization): 1 | Maximal disability score: Motor (grip)* ([1]; day 119 after immunization): 4 | Maximal disability score: Other signs (shine hairs and loose skin) ([1]; day 119 after immunization): 2 | Maximal disability score: Sensory* Light touch ([1]; day 119 after immunization): 4 | Maximal disability score: Sensory* Pain ([1]; day 119 after immunization): 4 | Maximal disability score: Spontaneous mobility ([1]; day 119 after immunization): 2 | Maximal disability score: Tone* ([1]; day 119 after immunization): 4 | Maximal disability score: Tremor ([1]; day 119 after immunization): 1 | Maximal disability score: Vision (including pupillary reflex) ([1]; day 119 after immunization): 0 | Total expanded disability scale ([1]; day 119 after immunization): 23 | Pathology status scale: Apoptosis ([2]; day 45): 2 | Pathology status scale: Oligodendrocytes** ([2]; day 45): 2 | Pathology status scale: Remyelination** ([2]; day 45): 3 | Pathology status scale: Axonal damage ([2]; day 45): 2 | Pathology status scale: Demyelination ([2]; day 45): 2 | Pathology status scale: Inflammation ([2]; day 45): 3 | Pathology status scale: Apoptosis ([2]; day 60): 3 | Pathology status scale: Oligodendrocytes** ([2]; day 60): 3 | Pathology status scale: Remyelination** ([2]; day 60): 2 | Pathology status scale: Axonal damage ([2]; day 60): 3 | Pathology status scale: Demyelination ([2]; day 60): 3 | Pathology status scale: Inflammation ([2]; day 60): 3 | Pathology status scale: Apoptosis ([2]; day 65): 2 | Pathology status scale: Oligodendrocytes** ([2]; day 65): 2 | Pathology status scale: Remyelination** ([2]; day 65): 2 | Pathology status scale: Axonal damage ([2]; day 65): 1 | Pathology status scale: Demyelination ([2]; day 65): 2 | Pathology status scale: Inflammation ([2]; day 65): 2 | Pathology status scale: Apoptosis ([2]; day 70): 1 | Pathology status scale: Oligodendrocytes** ([2]; day 70): 1 | Pathology status scale: Remyelination** ([2]; day 70): 2 | Pathology status scale: Axonal damage ([2]; day 70): 1 | Pathology status scale: Demyelination ([2]; day 70): 1 | Pathology status scale: Inflammation ([2]; day 70): 2 | Pathology status scale: Apoptosis ([2]; day 119): 2 | Pathology status scale: Oligodendrocytes** ([2]; day 119): 2 | Pathology status scale: Remyelination** ([2]; day 119): 1 | Pathology status scale: Axonal damage ([2]; day 119): 2 | Pathology status scale: Demyelination ([2]; day 119): 2 | Pathology status scale: Inflammation ([2]; day 119): 1 | Total scores After treatment (pathology status scale) ([2]; sum over the six pathology parameters after treatment): 46 | cumulative scores for inflammation, demyelination, remyelination, apoptosis, oligodendrocyte loss, and axonal damage following treatment ([2]; text statement of Table 2 totals): 46
